Test results reported in the NIST ThermoML archive (doi:10.1016/j.fluid.2005.07.017).

Assay: xn = mol fraction of the nth substance listed
Settings: Liquid, Vibrating tube method

c1ccsc1 [thiophene] + O=C=O
Settings	mass density [kg/m3]
342.91 K, 11019 kPa, x2 = 0.3818	967.88
342.91 K, 11995 kPa, x2 = 0.3818	969.76
342.91 K, 12980 kPa, x2 = 0.3818	971.64
342.91 K, 14033 kPa, x2 = 0.3818	973.6
342.91 K, 15024 kPa, x2 = 0.3818	975.41
342.91 K, 15980 kPa, x2 = 0.3818	977.13
342.91 K, 17026 kPa, x2 = 0.3818	978.96
342.91 K, 18022 kPa, x2 = 0.3818	980.7
342.91 K, 19019 kPa, x2 = 0.3818	982.41
343.15 K, 101 kPa, x2 = 0	1002.15
352.59 K, 4979 kPa, x2 = 0.199	974.07
352.59 K, 5990 kPa, x2 = 0.199	975.64
352.59 K, 7029 kPa, x2 = 0.199	977.28
352.59 K, 8024 kPa, x2 = 0.199	978.8
352.59 K, 9035 kPa, x2 = 0.199	980.29
352.59 K, 9983 kPa, x2 = 0.199	981.7
352.59 K, 11018 kPa, x2 = 0.199	983.2
352.59 K, 12014 kPa, x2 = 0.199	984.65
352.59 K, 13125 kPa, x2 = 0.199	986.24
352.59 K, 14000 kPa, x2 = 0.199	987.44
352.59 K, 15014 kPa, x2 = 0.199	988.92
352.59 K, 15934 kPa, x2 = 0.199	990.14
352.59 K, 17055 kPa, x2 = 0.199	991.66
352.59 K, 17954 kPa, x2 = 0.199	992.83
352.59 K, 19034 kPa, x2 = 0.199	994.28
352.59 K, 20005 kPa, x2 = 0.199	995.52
352.67 K, 1064 kPa, x2 = 0	992.39
352.67 K, 2003 kPa, x2 = 0	993.54
352.67 K, 3024 kPa, x2 = 0	994.79
352.67 K, 4003 kPa, x2 = 0	995.98
352.67 K, 5048 kPa, x2 = 0	997.22
352.67 K, 6013 kPa, x2 = 0	998.36
352.67 K, 7013 kPa, x2 = 0	999.51
352.67 K, 8050 kPa, x2 = 0	1000.73
352.67 K, 9018 kPa, x2 = 0	1001.82
352.67 K, 10003 kPa, x2 = 0	1002.93
352.67 K, 11003 kPa, x2 = 0	1004.07
352.67 K, 12004 kPa, x2 = 0	1005.16
352.67 K, 12998 kPa, x2 = 0	1006.25
352.67 K, 14005 kPa, x2 = 0	1007.34
352.67 K, 15038 kPa, x2 = 0	1008.46
352.67 K, 16006 kPa, x2 = 0	1009.49
352.67 K, 17027 kPa, x2 = 0	1010.58
352.67 K, 18001 kPa, x2 = 0	1011.6
352.67 K, 19031 kPa, x2 = 0	1012.65
352.67 K, 20017 kPa, x2 = 0	1013.74
352.85 K, 7014 kPa, x2 = 0.3818	941.65
352.85 K, 8124 kPa, x2 = 0.3818	944.24
352.85 K, 9071 kPa, x2 = 0.3818	946.38
352.85 K, 10020 kPa, x2 = 0.3818	948.55
352.85 K, 11000 kPa, x2 = 0.3818	950.66
352.85 K, 12010 kPa, x2 = 0.3818	952.84
352.85 K, 13005 kPa, x2 = 0.3818	954.93
